From patent US12509451B2, “Heteroaryl amide inhibitors of CD38” (NAPA THERAPEUTICS LTD., priority 2020, dated 2025)
Where “and” joins values, the source holds several entries; their conditions need not be identical. Equal entries are not always repeated.

Legend:
[1] = target: T1, human CD38 enzyme in primary human M1 macrophages (Homo sapiens, UniProt P28907); assay: NAD+ hydrolase activity assay in primary human M1 macrophages; format: cell-based; details: primary human M1 macrophages (LPS stimulated)
T1 construct: The assay utilized whole primary human macrophages (from healthy donors); endogenous in cells; host or cells: primary human macrophages from healthy donors, LPS-stimulated (M1)
T1 sequence (P28907 1-300): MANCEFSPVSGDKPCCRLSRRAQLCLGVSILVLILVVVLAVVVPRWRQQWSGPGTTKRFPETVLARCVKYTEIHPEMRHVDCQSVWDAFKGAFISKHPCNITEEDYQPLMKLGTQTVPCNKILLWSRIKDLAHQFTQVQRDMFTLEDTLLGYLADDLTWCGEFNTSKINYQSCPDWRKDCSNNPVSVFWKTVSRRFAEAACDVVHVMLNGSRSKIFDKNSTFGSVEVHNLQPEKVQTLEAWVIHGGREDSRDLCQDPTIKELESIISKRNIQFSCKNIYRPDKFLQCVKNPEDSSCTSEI
Protocol: The in vitro potency of Compound 35 against the human CD38 enzyme was determined by a fluorescence-based NAD+ hydrolase activity assay using the NAD+ analog nicotinamide 1,N^6-etheno-adenine dinucleotide (εNAD+) as substrate. The assay utilized: 1) whole primary human CD4+ T cells (from healthy donors) activated with anti-CD3/CD28 antibodies and expressing human CD38; or II) whole primary human macrophages (from healthy donors) stimulated with LPS to polarize in a pro-inflammatory M1 state expressing human CD38. The cells were incubated in the presence of 8 different concentrations of Compound 35 for 10 minutes and the reaction was started adding the substrate εNAD+. The emission of fluorescence was measured at 410-20 nm at 37° C. every minute for 1 hr. The NAD+ hydrolase activity was calculated as the slope of the linear portion of the fluorescence-time curve and used to calculate the IC50 value.
(§1) The in vitro potency of Compound 32 against the human CD38 enzyme was determined by a fluorescence-based NAD+ hydrolase activity assay using the NAD+ analog nicotinamide 1,N6-etheno-adenine dinucleotide (εNAD+) as substrate. The assay utilized whole primary human macrophages (from healthy donors) stimulated with LPS to polarize in a pro-inflammatory M1 state expressing human CD38. […] The emission of fluorescence was measured at 410-20 nm at 37° C. every minute for 1 hr. The NAD+ hydrolase activity was calculated as the slope of the linear portion of the fluorescence-time curve and used to calculate the IC50 value.
as §1, with “39” for “32”, “substrate.” for “substrate. The assay utilized whole primary human macrophages (from healthy donors) stimulated with LPS to polarize in a pro-inflammatory M1 state expressing human CD38.”

[2] = target: T2, recombinant mouse CD38 Protein (Mus musculus, UniProt P56528); assay: Fluorescence-based NAD+ cyclase activity assay with mouse recombinant CD38 protein (Assay 4); format: biochemical; details: read-out: Assay 4 Arithmetic mean IC50
T2 construct: purchased R&D System
T2 sequence (P56528 1-304): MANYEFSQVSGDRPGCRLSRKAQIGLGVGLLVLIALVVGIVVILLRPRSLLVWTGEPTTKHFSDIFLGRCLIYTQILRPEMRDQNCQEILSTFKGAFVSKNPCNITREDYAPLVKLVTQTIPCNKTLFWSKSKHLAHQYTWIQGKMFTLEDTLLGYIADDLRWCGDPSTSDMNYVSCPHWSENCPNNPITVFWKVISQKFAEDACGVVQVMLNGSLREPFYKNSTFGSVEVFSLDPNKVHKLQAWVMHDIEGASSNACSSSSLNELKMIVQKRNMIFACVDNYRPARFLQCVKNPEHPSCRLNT
Protocol: This protocol was modified from de Oliveira et al. (2018) supra.
NAD+ cyclase activity of the […] recombinant CD38 protein treated with test compounds was measured using a fluorescence-based assay. Briefly, recombinant mouse CD38 Protein (R&D System) was resuspended in 44 μl/well of Sucrose-Tris Buffer (Sucrose 0.25 M, Tris pH 7.4 40 mM) and plated in a 96-well black plate (CORNING) at a density of 32 ng/well.
Each test compound was received in a powder state and dissolved in DMSO as a 25 mM stock solution. Each test compound was serially diluted in order to generate a dose-response curve. The dilution series of each test compound in DMSO was prepared at 50 times the concentrations to be assayed. Each test compound was diluted to generate a 5-fold dilution series of 8 concentrations from 100 μM to 32 nM in order to assay 8 final concentrations ranging from 2 μM to 0.64 nM. One μl of the 50× concentration compound series was added to each well of the plate containing 125 ng of protein in Sucrose-Tris buffer.
Each plate had the following intra plate controls: 3 wells containing cells treated with vehicle only (DMSO), 3 wells of cells treated with the reference compounds 78c at a final concentration of 500 nM and 2 wells containing only Sucrose-Tris buffer (used as a background value).
The reaction was started adding nicotinamide guanine dinucleotide (NGD+) (Sigma Aldrich) to reach a final concentration of 150 µM. The samples were excited at 337-15 nm and the emission of fluorescence was measured at 442-20 nm at 37° C. every minute for 1 hr in a Clariostar® microplate reader (BMG LABTECH). NAD+ cyclase activity was calculated as the slope of the linear portion of the fluorescence-time curve using the MARS data analysis software (BMG LABTECH). The data were uploaded in the Collaborative Drug Design (CDD) Software and for each compound the IC50 was calculated by the software. Each compound was tested in 3 independent experiments on 3 separate days to establish the reproducibility of the results. For each plate, the z-factor was also calculated as a plate quality using the CDD software.

SMILES | IC50 [1] | IC50 [2]
O=C(Nc1ccnc(C(F)(F)F)c1)c1cc(OC2CC2)cc(-n2ccnc2)n1 [Compound 32, 4-cyclopropoxy-6-(1H-imidazol-1-yl)-N-(2-(trifluoromethyl)pyridin-4-yl)picolinamide] | 3.5 nM and 3.49 nM | 
CN(C)CCOc1cc(C(=O)Nc2ccnc(C(F)(F)F)c2)nc(-n2ccnc2)c1 [Compound 33] |  | 1 to 50 nM
CC1(Oc2cc(C(=O)Nc3ccnc(C(F)(F)F)c3)nc(-n3ccnc3)c2)COC1 [Compound 34, 6-(1H-imidazol-1-yl)-4-((3-methyloxetan-3-yl)oxy)-N-(2-(trifluoromethyl)pyridin-4-yl)picolinamide] |  | 51 to 1000 nM
COc1cc(C(=O)Nc2ccnc(C(F)(F)F)c2)nc(-n2ccnc2)c1 [Compound 35, 6-(1H-imidazol-1-yl)-4-methoxy-N-(2-(trifluoromethyl)pyridin-4-yl)picolinamide] | 2.25 nM | 1 to 50 nM
COc1cc(C(=O)Nc2ccnc(C(F)(F)F)c2)nc(-n2ccnc2)n1 [Compound 37, 2-(1H-imidazol-1-yl)-6-methoxy-N-(2-(trifluoromethyl)pyridin-4-yl)pyrimidine-4-carboxamide] |  | 51 to 1000 nM
CCOc1cc(C(=O)Nc2ccnc(C(F)(F)F)c2)nc(-n2ccnc2)n1 [Compound 38] |  | 51 to 1000 nM
COCCOc1cc(C(=O)Nc2ccnc(C(F)(F)F)c2)nc(-n2ccnc2)n1 [Compound 39, 2-(1H-imidazol-1-yl)-6-(2-methoxyethoxy)-N-(2-(trifluoromethyl)pyridin-4-yl)pyrimidine-4-carboxamide] | 3.9 nM and 3.92 nM | 1 to 50 nM
O=C(Nc1ccnc(C(F)(F)F)c1)c1cc(OC2CC2)nc(-n2ccnc2)n1 [Compound 40] |  | 51 to 1000 nM
O=C(Nc1ccnc(C(F)(F)F)c1)c1cc(C2CC2)nc(-n2ccnc2)n1 [Compound 51, 6-cyclopropyl-2-(1H-imidazol-1-yl)-N-(2-(trifluoromethyl)pyridin-4-yl)pyrimidine-4-carboxamide] |  | 1 to 50 nM
